Article PMC11887451, “Leveraging Immunogenic Cell Death to Enhance the Immune Response against Malignant Pleural Mesothelioma Tumors” (Journal of the American Chemical Society, 2025)

What was measured:
[1] = system: human malignant mesothelioma cell line LO68; test: MTT cytotoxicity assay, 72 h, LO68; assay type: cell-based; details: exposure time 72 h
From the text: (§1) Human malignant mesothelioma cancer cell lines JU77 and LO68 were obtained from Cell Bank Australia (Children's Medical Research Institute, Westmead, Australia). Mouse malignant mesothelioma cancer cell line AB12, human nonmalignant mesothelioma cancer cell line Met5A (mesothelial cells), mouse macrophage cell line J774 and human monocytic cell line THP-1 were obtained from American Type Culture Collection (ATCC) (Rockville, MD, USA). Human malignant mesothelioma cell lines VMC23 (epithelial), Meso82 (sarcomatous), Meso92 (biphasic), were kindly provided by Prof. Walter Berger (Medical University of Vienna). All cells except for J774 were cultured in RPMI and J774 cells were cultured in DMEM. Both types of media were supplemented with 10% FBS and 1% penicillin-streptomycin (10,000 U/mL). Cells were grown in tissue culture flasks (75 cm2 and 25 cm2, SPL Life Sciences Co., Ltd., Korea). All cell lines were grown at 37 °C in a humidified atmosphere of 95% air and 5% CO 2 and passaged when they reached 80–90% confluency. All Au stock solutions were prepared in 1% DMSO in the respected medium, ensuring that cell viability was not inhibited.
(§2) The cytotoxicity of compounds was determined using an MTT colorimetric test. The cells were harvested from culture flasks by trypsinization and seeded into Cellstar 96 -well microculture plates (Greiner Bio -One) at the seeding density of 6000 cells per well (6 × 10^4 cells/mL). After
(§3) the cells were allowed to resume exponential growth for 16 h, they were exposed to drugs at
(§4) different concentrations in media for 72 h. The drugs were diluted in a complete medium at the desired concentration added to each well (100 μL) and serially diluted in other wells. After exposure for 72 h, the media was replaced with MTT in media (5 mg/mL, 100 μL/well) and
(§5) incubated for an additional 50 min. Subsequently, the medium was aspirated, and the purple formazan crystals formed in viable cells were dissolved in DMSO (100 μL/well). Optical densities were measured at 570 nm using a BioTek Synergy H1 microplate and MultiskanTM SkyHigh plate readers. The quantity of viable cells was expressed in terms of treated/control (T/C) values in comparison to untreated control cells, and 50% inhibitory concentrations (IC 50) were calculated from concentration-effect curves by interpolation. An evaluation was based on means from at least three independent experiments, each comprising three replicat es per
(§6) DMSO had not impact on the cell viability at the concentrations used.

[2] = system: patient-derived VMC23 cell line (epithelioid MPM); test: MTT cytotoxicity assay, 72 h, VMC23; assay type: cell-based, human; details: exposure time 72 h
[3] = system: patient-derived Meso92 cell line (biphasic MPM); test: MTT cytotoxicity assay, 72 h, Meso92; assay type: cell-based, human; details: exposure time 72 h
From the text: Cell lines and culture conditions
(§7) Mouse malignant mesothelioma cancer cell line AB12, human nonmalignant mesothelioma cancer cell line Met5A (mesothelial cells), mouse macrophage cell line J774 and human monocytic cell line THP-1 were obtained from American Type Culture Collection (ATCC) (Rockville, MD, USA). Human malignant mesothelioma cell lines VMC23 (epithelial), Meso82 (sarcomatous), Meso92 (biphasic), were kindly provided by Prof. Walter Berger (Medical University of Vienna). All cells except for J774 were cultured in RPMI and J774 cells were cultured in DMEM. Both types of media were supplemented with 10% FBS and 1% penicillin-streptomycin (10,000 U/mL). Cells were grown in tissue culture flasks (75 cm2 and 25 cm2, SPL Life Sciences Co., Ltd., Korea). All cell lines were grown at 37 °C in a humidified atmosphere of 95% air and 5% CO 2 and passaged when they reached 80–90% confluency. All Au stock solutions were prepared in 1% DMSO in the respected medium, ensuring that cell viability was not inhibited. The Au concentration in the stock solutions was confirmed through inductively coupled plasma optical emission spectrometry. The stock solution of pemetrexed (10 mM) was prepared in Milli -Q water.
Inhibition of c ell viability assay
as §2, §3, §4, §5

[4] = system: murine malignant mesothelioma cell line AB12; test: MTT cytotoxicity assay, 72 h, AB12; assay type: cell-based, mouse; details: exposure time 72 h
From the text: as §1, §2, §3, §4, §5, §6

[5] = system: patient-derived Meso84 cell line (sarcomatoid MPM); test: MTT cytotoxicity assay, 72 h, Meso84; assay type: cell-based, human; details: exposure time 72 h
From the text: as §1, §2, §3, §4, §5, §6

[6] = system: human malignant mesothelioma cell line JU77; test: MTT cytotoxicity assay, 72 h, JU77; assay type: cell-based; details: exposure time 72 h
[7] = system: human nonmalignant mesothelioma cell line Met5A; test: MTT cytotoxicity assay, 72 h, Met5A; assay type: cell-based; details: exposure time 72 h
From the text: Cell lines and culture conditions
as §7
Inhibition of c ell viability assay
as §2, §3, §4, §5

[8] = Aqueous stability by RP-HPLC in 1:1 DMSO:H2O over 72 h; assay type: physicochemical; details: room temperature
Method: The aqueous stability of the Au(III)–DTC complexes was assessed by monitoring their RP-HPLC profiles in a 1:1 DMSO:H2O mixture at room temperature over a 3-day period (Supplementary Figures 112–146).
Determination of the purity of cyclometalated Au( III) complexes was performed using analytical HPLC on a Shimadzu Prominence System equipped with a DGU -20A3 Degasser, two LC-20AD Liquid Chromatography Pump, a SPD-20A UV/Vis Detector and a Shim Pack GVP-ODS 2.0 mm 18 column ([…], 120Å, 250 mm × 4.60 mm i.d.). The analysis was conducted at r.t. with a flow rate of 1.0 mL/min and detection at 254 and 280 nm. Mobile phase A was H2O + 0.1% Trifluoroacetic acid (TFA) while mobile phase B is ACN + 0.1% TFA. The gradient program parameters were as follows: mobil e phase B was increased from 30 to 95% over 30 min. 95% mobile phase B was maintained for 10 min, 95 to 30% over 5 min, and finally returned to 30% for 10 min for the next analysis. LogP values of the complexes were calculated based on the HPLC retention times derived from the calibration standard curve. The calibration standard curve was established using 2-butanone, phenylacetonitrile, anisole, ethyl benzoate, benzophenone, diphenyl ether and triphenylamine. To conduct an aqueous stability study, the HPLC profiles of the sample stock solutions were diluted to a 1:1 ratio of DMSO to […]
water. […]

Structure (SMILES) | IC50 [1] | IC50 [2] | IC50 [3] | IC50 [4] | IC50 [5] | IC50 [6] | IC50 [7] | hydrolysis over the 72-h period [8] | minor RP-HPLC peak, share of the total area after 24 h [8] | minor RP-HPLC peak, share of the total area after 72 h [8]
COC1c2cccc[c]2[Au-]2([S]C(=[N+](C)C)[S]2)[n+]2ccccc21.F[P-](F)(F)(F)(F)F (racemic) [4A] | 1300 ± 300 nM | 4700 ± 700 nM | 160 ± 30 nM | 290 ± 40 nM | 190 ± 30 nM | 1400 ± 200 nM | 720 ± 210 nM |  |  | 
COC1c2cccc[c]2[Au-]2([S]C(=[N+]3CCCC3)[S]2)[n+]2ccccc21.F[P-](F)(F)(F)(F)F (racemic) [4F] | 1400 ± 200 nM | 2900 ± 300 nM | 1700 ± 500 nM | 320 ± 50 nM | 340 ± 100 nM | 3300 ± 800 nM | 740 ± 90 nM |  |  | 
F[P-](F)(F)(F)(F)F.c1ccc(C[N+](Cc2ccccc2)=C2[S][Au-]3([S]2)[c]2ccccc2-c2cccc[n+]23)cc1 (stereo not shown) [1D] | 1500 ± 400 nM | 1400 ± 200 nM | 1400 ± 300 nM | 1900 ± 200 nM | 1400 ± 100 nM | 760 ± 100 nM | 1300 ± 300 nM |  |  | 
C[N+](C)=C1[S][Au-]2([S]1)[c]1ccccc1C(=O)c1cccc[n+]12.F[P-](F)(F)(F)(F)F (stereo not shown) [3A] | 990 ± 190 nM | 640 ± 60 nM | 530 ± 110 nM | 140 ± 40 nM | 1200 ± 200 nM | 1900 ± 500 nM | 440 ± 130 nM |  |  | 
CC[N+](CC)=C1[S][Au-]2([S]1)[c]1ccccc1C(OC)c1cccc[n+]12.F[P-](F)(F)(F)(F)F (racemic) [4B] | 2900 ± 800 nM | 7300 ± 1800 nM | 6300 ± 1000 nM | 330 ± 100 nM | 1700 ± 500 nM | 4800 ± 700 nM | 430 ± 130 nM |  |  | 
CC[N+](=C1[S][Au-]2([S]1)[c]1ccccc1Nc1cccc[n+]12)c1ccccc1.F[P-](F)(F)(F)(F)F (stereo not shown) [5E] | 760 ± 180 nM | 340 ± 40 nM | 400 ± 50 nM | 180 ± 10 nM | 510 ± 100 nM | 440 ± 130 nM | 280 ± 80 nM |  |  | 
CC[N+](CC)=C1[S][Au-]2([S]1)[c]1ccccc1-c1cccc[n+]12.F[P-](F)(F)(F)(F)F (stereo not shown) [1B] | 550 ± 160 nM | 1600 ± 300 nM | 690 ± 210 nM | 190 ± 20 nM | 85 ± 7 nM | 890 ± 130 nM | 530 ± 70 nM |  |  | 
CC[N+](=C1[S][Au-]2([S]1)[c]1ccccc1Cc1cccc[n+]12)c1ccccc1.F[P-](F)(F)(F)(F)F (stereo not shown) [2E] | 2300 ± 100 nM | 2000 ± 600 nM | 1600 ± 200 nM | 2700 ± 600 nM | 1600 ± 400 nM | 1600 ± 200 nM | 3000 ± 600 nM | less than 10% | 4% | remained unchanged
CC[N+](=C1[S][Au-]2([S]1)[c]1ccccc1-c1cccc[n+]12)c1ccccc1.F[P-](F)(F)(F)(F)F (stereo not shown) [1E] | 2300 ± 300 nM | 1300 ± 200 nM | 2000 ± 300 nM | 840 ± 200 nM | 1200 ± 100 nM | 850 ± 100 nM | 690 ± 130 nM |  |  | 
C[N+](C)=C1[S][Au-]2([S]1)[c]1ccccc1-c1cccc[n+]12.F[P-](F)(F)(F)(F)F (stereo not shown) [1A] | 1000 ± 300 nM | 630 ± 150 nM | 190 ± 40 nM | 88 ± 2 nM | 1300 ± 300 nM | 1100 ± 300 nM | 310 ± 70 nM |  |  | 
COC1c2cccc[c]2[Au-]2([S]C(=[N+]3CCCCCC3)[S]2)[n+]2ccccc21.F[P-](F)(F)(F)(F)F (racemic) [4G] | 1600 ± 200 nM | 3500 ± 700 nM | 4800 ± 500 nM | 230 ± 60 nM | 1800 ± 400 nM | 2400 ± 700 nM | 2000 ± 300 nM |  |  | 
F[P-](F)(F)(F)(F)F.O=C1c2cccc[c]2[Au-]2([S]C(=[N+]3CCCCCC3)[S]2)[n+]2ccccc21 (stereo not shown) [3G] | 1200 ± 100 nM | 1400 ± 200 nM | 1800 ± 200 nM | 350 ± 70 nM | 1800 ± 300 nM | 1100 ± 200 nM | 1500 ± 200 nM |  |  | 
CC[N+](CC)=C1[S][Au-]2([S]1)[c]1ccccc1C(=O)c1cccc[n+]12.F[P-](F)(F)(F)(F)F (stereo not shown) [3B] | 930 ± 180 nM | 7500 ± 1400 nM | 1100 ± 300 nM | 220 ± 10 nM | 1400 ± 300 nM | 1200 nM | 1400 ± 100 nM |  |  | 
F[P-](F)(F)(F)(F)F.c1cc[c]2c(c1)-c1cccc[n+]1[Au-]21[S]C(=[N+]2CCCC2)[S]1 (stereo not shown) [1F] | 1700 ± 300 nM | 930 ± 280 nM | 220 ± 60 nM | 200 ± 60 nM | 190 ± 40 nM | 1500 ± 100 nM | 180 ± 50 nM |  |  | 
F[P-](F)(F)(F)(F)F.c1ccc(C[N+](Cc2ccccc2)=C2[S][Au-]3([S]2)[c]2ccccc2Nc2cccc[n+]23)cc1 (stereo not shown) [5D] | 950 ± 130 nM | 1300 ± 300 nM | 1100 ± 200 nM | 1100 nM | 1100 ± 300 nM | 520 ± 80 nM | 1000 ± 200 nM |  |  | 
C[N+](C)=C1[S][Au-]2([S]1)[c]1ccccc1Cc1cccc[n+]12.F[P-](F)(F)(F)(F)F (stereo not shown) [2A] | 1200 nM | 8400 ± 1000 nM | 260 ± 40 nM | 170 ± 20 nM | 220 ± 60 nM | 2800 ± 200 nM | 430 ± 80 nM |  |  | 
F[P-](F)(F)(F)(F)F.c1cc[c]2c(c1)Cc1cccc[n+]1[Au-]21[S]C(=[N+]2CCCC2)[S]1 (stereo not shown) [2F] | 720 ± 120 nM | 970 ± 260 nM | 1000 ± 300 nM | 290 ± 40 nM | 560 ± 100 nM | 1100 ± 100 nM | 730 ± 120 nM | less than 10% | 5% | 9%
CC[N+](CC)=C1[S][Au-]2([S]1)[c]1ccccc1Cc1cccc[n+]12.F[P-](F)(F)(F)(F)F (stereo not shown) [2B] | 2200 ± 400 nM | 6600 ± 1700 nM | 6200 ± 1700 nM | 300 ± 60 nM | 420 ± 120 nM | 3000 ± 400 nM | 530 ± 80 nM |  |  | 
CC[N+](=C1[S][Au-]2([S]1)[c]1ccccc1C(OC)c1cccc[n+]12)c1ccccc1.F[P-](F)(F)(F)(F)F (racemic) [4E] | 4500 ± 500 nM | 4300 ± 800 nM | 5300 ± 200 nM | 1900 ± 400 nM | 2300 ± 600 nM | 3200 ± 300 nM | 1400 ± 300 nM | less than 10% | 5% | 7%
